B1: MCM, wild-type (S. islandicus) (natural protein, UniProt F0NF15 1-686, looked up)
chain: MEIPSKQIDYRDLFIEFLTTFKNTNNQNKYIERINELIAYRKKSLIVEFSDILSFNENLAYEIINNTKIVLPILEGALYDHILQLDPTYQRDIEKVHVRIVGIPRVIELRKIRSTDIDKLITIDGILVKVTPVKERIYKATYKHIHPDCMQEFEWPEDEEMPEILEMPTICPKCGKPGQFRLIPEKTKLIDWQKAVIQERPEEVPSGQLPRQLEIILEDDLVDSARPGDRVKVTGILEIKQDSPIKRGSRAVFDIYMKVSSIEVSQKVLDEVTISEEDEKKIKDLAKDPWIRDRIIASIAPSIYGHWELKEALALALFGGVPKVLEDTRIRGDIHILIIGDPGTAKSQMLQFISRVAPRAVYTTGKGSTAAGLTAAVVREKGTGEYYLEAGALVLADGGIAVIDEIDKMRDEDRVAIHEAMEQQTVSIAKAGIVAKLNARAAVIAAGNPKFGRYITERPVSDNINLPPTILSRFDLIFILKDQPGEQDRELANYILDVHSGKSTKNIIDIDTLRKYIAYARKYIIPKITSEAKNLITDFFVEMRKKSSETPDSPILITPRQLEALIRISEAYAKMALKTEVTREDAERAINIMRLFLESVGVDMESGKIDIDTIMTGKPKSAREKMMKILEIIDSLAVSSECAKVKDILKEAQQVGIEKSNIEKLLTDMRKSGIIYEAKPECYKKV

Experiments:
MCM ΔC = MCM ΔC (Saccharolobus islandicus, UniProt F0NF15); experiment: colorimetric phosphate release ATPase assay; format: biochemical; details: 1 mM ATP, 10 mM magnesium acetate, pH 7.9, 50 °C
SEC = molecular target: the molecule itself; experiment: SEC

Molecule | colorimetric phosphate release ATPase assay (MCM ΔC) | stoichiometry N (SEC)
Nc1ncnc2c1ncn2[C@@H]1O[C@H](COP(=O)(O)OP(=O)(O)OP(=O)(O)O)[C@@H](O)[C@H]1O [ATP] | loss of the wH domain results in a marked activation of the ATPase activity | 
B1 |  | 6
